Measured values as given in ChEMBL document CHEMBL2169864, “Binding Model for the Interaction of Anticancer Arylsulfonamides with the p300 Transcription Cofactor” (ACS Med Chem Lett, 2012).
The source made the active and inactive calls. The calls are words filed in the database; no cut-off is given here.

Columns and labels:
[1] = target: T1, Histone acetyltransferase p300 (Homo sapiens, UniProt Q09472); assay: Binding affinity to recombinant P300 CH1 domain assessed as dissociation constant by surface plasmon resonance analysis
T1 sequence (Q09472 whole entry, the tested form may be a part): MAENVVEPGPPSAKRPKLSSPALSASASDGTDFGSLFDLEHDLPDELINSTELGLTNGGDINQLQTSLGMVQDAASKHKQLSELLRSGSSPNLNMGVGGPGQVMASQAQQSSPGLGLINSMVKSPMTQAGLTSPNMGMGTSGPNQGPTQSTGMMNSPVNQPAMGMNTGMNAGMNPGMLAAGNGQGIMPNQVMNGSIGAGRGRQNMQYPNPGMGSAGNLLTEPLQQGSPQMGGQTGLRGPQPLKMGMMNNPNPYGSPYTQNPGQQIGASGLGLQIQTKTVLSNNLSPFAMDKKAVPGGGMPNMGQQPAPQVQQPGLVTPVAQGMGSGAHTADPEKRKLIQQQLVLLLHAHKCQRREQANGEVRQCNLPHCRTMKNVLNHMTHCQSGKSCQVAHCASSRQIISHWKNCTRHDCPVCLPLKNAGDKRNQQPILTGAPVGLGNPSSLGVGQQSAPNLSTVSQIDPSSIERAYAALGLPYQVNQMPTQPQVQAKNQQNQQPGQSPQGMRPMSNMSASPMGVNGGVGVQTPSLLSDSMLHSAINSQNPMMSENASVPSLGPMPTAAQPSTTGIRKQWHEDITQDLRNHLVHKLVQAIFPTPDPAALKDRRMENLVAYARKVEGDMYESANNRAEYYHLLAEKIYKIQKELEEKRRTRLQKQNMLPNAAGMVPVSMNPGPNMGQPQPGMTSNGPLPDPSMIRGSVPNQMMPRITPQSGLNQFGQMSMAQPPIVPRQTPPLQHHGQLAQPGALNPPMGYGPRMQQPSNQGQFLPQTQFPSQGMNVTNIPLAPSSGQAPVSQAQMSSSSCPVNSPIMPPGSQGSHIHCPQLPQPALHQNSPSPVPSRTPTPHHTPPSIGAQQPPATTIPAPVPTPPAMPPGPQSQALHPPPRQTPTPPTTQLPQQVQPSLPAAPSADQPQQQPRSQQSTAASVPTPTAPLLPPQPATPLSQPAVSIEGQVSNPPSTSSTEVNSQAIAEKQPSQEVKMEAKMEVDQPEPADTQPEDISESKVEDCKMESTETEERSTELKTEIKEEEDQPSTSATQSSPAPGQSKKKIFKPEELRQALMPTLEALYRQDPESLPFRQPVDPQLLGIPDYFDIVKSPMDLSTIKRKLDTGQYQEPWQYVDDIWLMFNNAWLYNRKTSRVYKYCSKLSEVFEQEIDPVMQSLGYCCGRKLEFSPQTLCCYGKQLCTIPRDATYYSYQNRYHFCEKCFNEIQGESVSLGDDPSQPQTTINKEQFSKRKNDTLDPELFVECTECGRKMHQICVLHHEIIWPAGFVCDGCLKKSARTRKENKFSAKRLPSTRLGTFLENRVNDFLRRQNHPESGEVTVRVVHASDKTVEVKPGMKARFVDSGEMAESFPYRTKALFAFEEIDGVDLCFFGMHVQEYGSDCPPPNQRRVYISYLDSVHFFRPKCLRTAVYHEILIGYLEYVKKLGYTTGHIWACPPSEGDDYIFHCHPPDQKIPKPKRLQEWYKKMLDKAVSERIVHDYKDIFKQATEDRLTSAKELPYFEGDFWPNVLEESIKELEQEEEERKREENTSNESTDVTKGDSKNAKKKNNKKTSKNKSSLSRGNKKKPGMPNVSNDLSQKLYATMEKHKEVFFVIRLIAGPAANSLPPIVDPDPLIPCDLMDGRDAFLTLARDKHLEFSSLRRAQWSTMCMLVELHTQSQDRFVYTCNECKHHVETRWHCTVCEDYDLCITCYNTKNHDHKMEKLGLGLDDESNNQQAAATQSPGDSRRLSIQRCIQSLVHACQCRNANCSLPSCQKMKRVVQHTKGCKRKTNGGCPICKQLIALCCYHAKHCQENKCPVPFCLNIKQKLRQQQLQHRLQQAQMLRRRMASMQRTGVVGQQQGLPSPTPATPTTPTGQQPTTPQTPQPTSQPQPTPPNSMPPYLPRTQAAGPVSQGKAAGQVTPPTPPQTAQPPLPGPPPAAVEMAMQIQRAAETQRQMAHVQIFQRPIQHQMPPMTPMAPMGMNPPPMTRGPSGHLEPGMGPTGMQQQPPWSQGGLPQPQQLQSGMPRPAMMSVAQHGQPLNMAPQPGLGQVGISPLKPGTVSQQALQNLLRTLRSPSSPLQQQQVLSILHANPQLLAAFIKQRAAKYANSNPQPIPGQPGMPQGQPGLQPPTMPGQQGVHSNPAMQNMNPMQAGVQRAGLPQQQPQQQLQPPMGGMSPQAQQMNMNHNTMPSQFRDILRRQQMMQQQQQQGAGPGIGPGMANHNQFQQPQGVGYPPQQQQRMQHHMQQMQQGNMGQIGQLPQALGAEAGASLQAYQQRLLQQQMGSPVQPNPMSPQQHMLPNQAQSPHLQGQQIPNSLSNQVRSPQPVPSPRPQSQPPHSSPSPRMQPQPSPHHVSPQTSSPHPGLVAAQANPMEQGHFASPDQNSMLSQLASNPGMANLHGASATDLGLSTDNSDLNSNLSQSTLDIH

[2] = target: T1, Histone acetyltransferase p300; assay: Binding affinity to GST-tagged recombinant P300 CH1 domain expressed in Escherichia coli BL21 by Coomassie staining-based gel electrophoresis; conditions: tested as the 14C-labelled form
[3] = target: T1, Histone acetyltransferase p300; assay: Binding affinity to P300 in human LN229 cell nuclear extracts by Western blot analysis
[4] = target: Hypoxia-inducible factor 1-alpha (Homo sapiens) (UniProt Q16665); assay: Binding affinity to HIF1alpha in human LN229 cell nuclear extracts by Western blot analysis
Hypoxia-inducible factor 1-alpha (Homo sapiens), sequence (Q16665 whole entry, looked up): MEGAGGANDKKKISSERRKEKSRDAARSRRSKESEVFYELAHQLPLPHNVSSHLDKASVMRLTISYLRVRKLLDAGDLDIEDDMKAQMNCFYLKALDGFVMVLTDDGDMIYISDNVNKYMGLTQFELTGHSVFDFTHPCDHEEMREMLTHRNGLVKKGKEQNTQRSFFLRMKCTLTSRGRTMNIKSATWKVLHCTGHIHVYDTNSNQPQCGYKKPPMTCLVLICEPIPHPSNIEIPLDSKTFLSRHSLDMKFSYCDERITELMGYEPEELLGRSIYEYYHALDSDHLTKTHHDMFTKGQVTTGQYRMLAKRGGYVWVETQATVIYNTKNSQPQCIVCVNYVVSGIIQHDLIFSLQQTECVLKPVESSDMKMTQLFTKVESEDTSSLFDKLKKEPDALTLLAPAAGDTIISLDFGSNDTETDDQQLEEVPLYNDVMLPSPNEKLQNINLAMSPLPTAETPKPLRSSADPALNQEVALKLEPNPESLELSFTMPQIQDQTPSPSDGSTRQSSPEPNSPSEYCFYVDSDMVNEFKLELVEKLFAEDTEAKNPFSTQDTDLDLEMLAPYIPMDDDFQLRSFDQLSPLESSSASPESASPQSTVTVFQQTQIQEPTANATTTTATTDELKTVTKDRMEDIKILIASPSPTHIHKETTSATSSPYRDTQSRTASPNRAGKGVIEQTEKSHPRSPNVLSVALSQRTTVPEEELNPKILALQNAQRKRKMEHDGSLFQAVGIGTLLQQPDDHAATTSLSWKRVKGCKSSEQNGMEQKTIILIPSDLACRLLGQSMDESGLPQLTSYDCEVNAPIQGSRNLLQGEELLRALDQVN

COc1ccc(S(=O)(=O)N(Cc2ccc3c(c2)C=CC(C)(C)O3)c2ccccc2)cc1OC
Kd [1]: 345 nM | Activity [2]: Active | Activity [3]: Active | Activity [4]: inactive
